Each molecule was assayed on Radical scavenging activity (assay: Antioxidant activity assessed as DPPH free radical scavenging activity at 20 uM after 30 min by UV-vis spectrophotometric analysis relative to propyl gallate).
Format: functional

SMILES	Activity [%]
O=c1c(O[C@@H]2O[C@H](CO)[C@@H](O)[C@H](O)[C@H]2O)c(-c2ccc(O)c(O)c2)oc2cc(O)cc(O)c12	71.8
COc1ccc(-c2oc3cc(O)cc(O)c3c(=O)c2O[C@@H]2O[C@H](CO)[C@@H](O)[C@H](O)[C@H]2O)cc1OC	49.1
NCCCCCCCCCCCC(=O)O	87.1

Source: ChEMBL document CHEMBL3046854, “Lupeol-3-O-decanoate, a new triterpene ester from Cadaba farinosa Forssk. growing in Saudi Arabia” (Med Chem Res, 2013)
